In patent US12064480B2, “Immunigenic alpha-branched trehalose-diesters” (GLAXOSMITHKLINE BIOLOGICALS SA, priority 2018, dated 2024):

Assays:
mouse Raw cell line = test: Cytokine production (TNFα) from mouse Raw cells; assay type: cell-based; settings: for TNFα potency in mouse cell line compared to human cells: mouse Raw cells vs human cells; for TNFα potency in mouse cell line compared to human cells / TNFα efficacy/peak levels relative to the other reference compounds / TNFα potency relative to sTDCM: FIG. 4A
Text: The compounds were screened for their ability to induce TNFα from the mouse Raw cell line. An aim of this study was to determine if species specific differences in responses to compounds may be observed.

human PBMCs = test: Cytokine production from human PBMCs (Luminex multiplex panel); assay type: cell-based; settings: human cells
Procedure: TDM (trehalose-6,6′-dimycolate) was obtained from Sigma. TDB (6,6′-dibehenoyl-α,α′-trehalose) was obtained from Avanti Polar Lipids. MMG (glycerol monomycolate) was prepared according to the procedure of Andersen et. al. sTDCM (synthetic trehalose dicorynomycolate) was obtained from Sigma-Aldrich (Catalog Number S3452).
PBMCs were obtained via leukapheresis from normal donors (AllCells, Berkeley, CA). Upon receipt PBMCs were repeatedly washed in 1×PBS and cryopreserved in freezing media (50% RPMI, 40% FCS, 10% DMSO) for future use. For assay, cells were immediately thawed into RPMI media, 10% heat inactivated FBS, 1× penicillin/streptomycin/glutamine (complete media), washed once and resuspended to the desired cell concentration in complete media. Cells were treated with the indicated compound concentrations by addition to plates containing serial dilution of the stock compound in diluent (50% isopropanol/50% isooctane). Compounds were applied, 20 ul final volume, to the bottom of a tissue culture plate and solvent was allowed to fully evaporate (i.e. plate coating) before cell addition.
Supernatants were harvested from treated cells 18-24 h post cell application. Supernatants were analyzed using a Luminex multiplex panel for analytes TNFα, IL-1β, IL-6, IFNγ, IL-12p70 and IL-23 per the manufacturer's instructions.

## CCCCCCCCCCCCCCCCCCCCCC(=O)OC[C@H]1O[C@H](O[C@H]2O[C@H](COC(=O)CCCCCCCCCCCCCCCCCCCCC)[C@@H](O)[C@H](O)[C@H]2O)[C@H](O)[C@@H](O)[C@@H]1O [TDB, 6,6′-dibehenoyl-α,α′-trehalose]
Mouse Raw cell line
  TNFα potency in mouse cell line compared to human cells: more potent in the mouse cell line as compared to human cells
Mouse Raw cell line; mouse Raw cells
  TNFα efficacy/peak levels relative to the other reference compounds: higher efficacy/peak levels
  TNFα potency relative to sTDCM: equivalent potency

## glycerol monomycolate [MMG]
Human PBMCs
  MMG/sTDCM potency difference: ~10 fold
Mouse Raw cell line; mouse Raw cells, TNFα
  fold less potent than sTDCM: over 100 fold
Mouse Raw cell line; mouse Raw cells, FIG. 4
  TNFα induction (activity): some activity
Mouse Raw cell line; mouse Raw cells
  TNFα efficacy/peak levels relative to the other reference compounds: equivalent levels

## trehalose-6,6′-dimycolate [TDM]
Mouse Raw cell line
  TNFα potency in mouse cell line compared to human cells: more potent in the mouse cell line as compared to human cells
Mouse Raw cell line; mouse Raw cells
  TNFα efficacy/peak levels relative to the other reference compounds: higher efficacy/peak levels
  TNFα potency relative to sTDCM: equivalent potency
